# Laboratory results published in US20250206729A1, “DUAL RAF AND TUBULIN INHIBITORS AND METHODS OF USE THEREOF” (Deciphera Pharmaceuticals, LLC, priority 2023, published 2025).
# What was measured:
# [1] = biological target: T1, B-Raf kinase (SEQ ID NO: 1) (Homo sapiens, UniProt P15056); assay: Biochemical assay for B-Raf (coupled pyruvate kinase/lactate dehydrogenase); settings: 1 mM ATP; read-out: BRAF (inhibition of biochemical activity, IC50)
# T1 construct: GST (N); purchased Sigma
# [2] = biological target: T2, C-Raf kinase (SEQ ID NO: 2) (Homo sapiens, UniProt P04049, Y340D/Y341D); assay: Biochemical assay for C-Raf (coupled pyruvate kinase/lactate dehydrogenase); settings: 1 mM ATP; read-out: CRAF (inhibition of biochemical activity, IC50)
# T2 construct: C-Raf residues 306-end; Y340D, Y341D with N-; GST (N); purchased Sigma
# T2 sequence (P04049 307-648 Y340D/Y341D): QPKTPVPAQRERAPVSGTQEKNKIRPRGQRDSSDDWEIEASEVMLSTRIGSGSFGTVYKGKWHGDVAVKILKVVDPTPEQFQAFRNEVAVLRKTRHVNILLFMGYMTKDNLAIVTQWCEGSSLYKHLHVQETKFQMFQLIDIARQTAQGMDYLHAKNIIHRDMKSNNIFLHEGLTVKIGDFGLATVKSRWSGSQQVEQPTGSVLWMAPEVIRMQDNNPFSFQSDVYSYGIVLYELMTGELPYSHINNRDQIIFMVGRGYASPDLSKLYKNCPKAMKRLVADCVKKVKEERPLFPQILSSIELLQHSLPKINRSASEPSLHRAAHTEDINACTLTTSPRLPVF
# MiaPaca-2 cells = assay: MiaPaca-2 cell proliferation assay; format: cell-based; settings: Homo sapiens, MIA PaCa-2; 67-72 h incubation, resazurin; read-out: MiaPaca-2 (inhibition of cell proliferation, IC50)
# Description: Miapaca-2 cells (catalog #CRL-1420) are obtained from the American Type Culture Collect (ATTC, Manassas, VA). Briefly, cells were grown in DMEM supplemented with 10% characterized fetal bovine serum (Invitrogen, Carlsbad, CA), 2.5% New Zealand sourced horse serum and 1% Penicillin/Streptomycin/L-Glutamine at 37° C., 5% CO2, and 95% humidity. Cells are expanded until reaching 70-95% confluency at which point they are sub-cultured or harvested for assay use. A serial dilution of test compound is dispensed into a 384-well black clear bottom plate in triplicate. Seven hundred fifty cells are added per well in 50 μL complete growth medium in the 384-well plate. Plates are incubated for 67-72 h at 37° C., 5% CO2, and 95% humidity. At the end of the incubation, 10 μL of a 440 μM solution of resazurin (Sigma, St. Louis, MO) in PBS is added to each well of the plate and plates are incubated for an additional 5-6 h at 37° C., 5% CO2, and 95% humidity. Plates are read on a Synergy2 or equivalent reader (Biotek, Winooski VT) using an excitation of 540 nm and an emission of 600 nm. Data is analyzed using Prism software (GraphPad, San Diego, CA) to calculate IC50 values.
# HCT-116 cells = assay: HCT-116 cell proliferation assay; format: cell-based; settings: Homo sapiens, HCT-116; 67 to 72 h incubation, resazurin; read-out: HCT-116 (inhibition of cell proliferation, IC50)
# Description: HCT-116 cells (catalog #CCL-247) are obtained from the American Type Culture Collect (ATCC, Manassas, VA). Briefly, cells are grown in McCoy's 5A supplemented with 10% characterized fetal bovine serum (Invitrogen, Carlsbad, CA) and 1% Penicillin/Streptomycin/L-Glutamine at 37° C., 5% CO2, and 95% humidity. Cells are expanded until reaching 70-95% confluency at which point they are sub-cultured or harvested for assay use. A serial dilution of test compound is dispensed into a 384-well black clear bottom plate in triplicate. 375 cells are added per well in 50 μL complete growth medium in the 384-well plate. Plates are incubated for 67 to 72 h at 37° C., 5% CO2, and 95% humidity. At the end of the incubation, 40 μL of a […] solution of resazurin (Sigma, St. Louis, MO) in PBS is added to each well of the plate and plates are incubated for an additional 4 to 5 h at 37° C., 5% CO2, and 95% humidity. Plates are read on a Synergy2 or equivalent reader (Biotek, Winooski, VT) using an excitation of 540 nm and an emission of 600 nm. Data is analyzed using Prism software (Graphpad, San Diego, CA) to calculate IC50 values.
# HPAF-II cells = assay: HPAF-II cell proliferation assay; format: cell-based; settings: Homo sapiens, HPAF-II; 115 to 120 h incubation, resazurin; read-out: HPAF-II (inhibition of cell proliferation, IC50)
# Description: (§1) HPAF-II cells (catalog #CRL-1997) are obtained from the American Type Culture Collect (ATCC, Manassas, VA). Briefly, cells are grown in Minimum Essential Media supplemented with 10% characterized fetal bovine serum (Invitrogen, Carlsbad, CA) and 1% Penicillin/Streptomycin/L-Glutamine at 37° C., 5% CO2, and 95% humidity. Cells are expanded until reaching 70-95% confluency at which point they are sub-cultured or harvested for assay use. A serial dilution of test compound is dispensed into a 384-well black clear bottom plate in triplicate. 750 cells are added per well in 50 μL complete growth medium in the 384-well plate. Plates are incubated for 115 to 120 h at 37° C., 5% CO2, and 95% humidity. At the end of the incubation, 40 μL of a […] solution of resazurin (Sigma, St. Louis, MO) in PBS is added to each well of the plate and plates are incubated for an additional 18 to 24 h at 37° C., 5% CO2, and 95% humidity. Plates are read on a Synergy2 or equivalent reader (Biotek, Winooski, VT) using an excitation of 540 nm and an emission of 600 nm. Data is analyzed using Prism software (Graphpad, San Diego, CA) to calculate IC50 values.
# Pa16c cells = assay: Pa16c cell proliferation assay; format: cell-based; settings: 67 to 72 h incubation, resazurin; read-out: Pa16c (inhibition of cell proliferation, IC50)
# Description: as §1, with “Pa16c” for “HPAF-II”, “cells” for “cells (catalog #CRL-1997)”, “Dr. Channing Der, University of North Carolina at Chapel Hill.” for “the American Type Culture Collect (ATCC, Manassas, VA).”, “Dulbecco's Modified Eagle Medium” for “Minimum Essential Media”, “67” for “115”, “72” for “120”
# T1 sequence (P15056 416-766): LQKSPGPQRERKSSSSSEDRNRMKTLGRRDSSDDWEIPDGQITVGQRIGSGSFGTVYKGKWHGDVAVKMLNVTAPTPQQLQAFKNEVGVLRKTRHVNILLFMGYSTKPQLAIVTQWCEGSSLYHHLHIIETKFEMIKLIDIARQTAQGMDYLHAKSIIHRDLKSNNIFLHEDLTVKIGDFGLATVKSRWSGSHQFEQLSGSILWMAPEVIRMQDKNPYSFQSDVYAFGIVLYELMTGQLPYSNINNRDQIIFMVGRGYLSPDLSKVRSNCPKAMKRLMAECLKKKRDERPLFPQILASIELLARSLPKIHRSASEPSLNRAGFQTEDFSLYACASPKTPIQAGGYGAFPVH
Compound,IC50 [1],IC50 [2],IC50 (MiaPaca-2 cells),IC50 (HCT-116 cells),IC50 (HPAF-II cells),IC50 (Pa16c cells)
"Cc1ccc(NC(=O)c2cc(C(F)(F)F)cnn2)cc1-c1cnnc(N2CCOCC2)c1 [Example 21, N-(4-methyl-3-(6-morpholinopyridazin-4-yl)phenyl)-5-(trifluoromethyl)pyridazine-3-carboxamide]",500 to 1000 nM,500 to 1000 nM,500 to 1000 nM,500 to 1000 nM,500 to 1000 nM,1000 to 10000 nM
Cc1ccc(NC(=O)c2cc(C(F)(F)F)cnn2)cc1-c1cc(N2CCOCC2)cnn1 [Example 22],1000 to 10000 nM,1000 to 10000 nM,1000 to 10000 nM,1000 to 10000 nM,1000 to 10000 nM,1000 to 10000 nM
Cc1ccc(NC(=O)c2cc(C(C)(C)F)cnn2)cc1-c1cc(N[C@H](C)CO)nc(N2CCOCC2)c1 [Example 23],< 100 nM,< 100 nM,< 100 nM,< 100 nM,< 100 nM,100 to 500 nM
Cc1ccc(NC(=O)c2cc(C3CC3)cnn2)cc1-c1cncc(N2CCOCC2)c1 [Example 24],100 to 500 nM,< 100 nM,100 to 500 nM,100 to 500 nM,100 to 500 nM,100 to 500 nM
Cc1ccc(NC(=O)c2cc(C(F)(F)F)cnn2)cc1-c1cc(N2CCOCC2)ncn1 [Example 25],500 to 1000 nM,500 to 1000 nM,100 to 500 nM,100 to 500 nM,100 to 500 nM,1000 to 10000 nM
Cc1ccc(NC(=O)c2cc(C(F)(F)F)cnn2)cc1-c1ccnc(N2CCOC(C(F)F)C2)c1 (stereo not drawn) [Example 26],100 to 500 nM,100 to 500 nM,100 to 500 nM,100 to 500 nM,100 to 500 nM,500 to 1000 nM
Cc1ccc(NC(=O)c2cc(C(F)(F)F)cnn2)cc1-c1cc(N[C@H](C)CO)nc(N2CCOCC2)n1 [Example 28],100 to 500 nM,100 to 500 nM,< 100 nM,100 to 500 nM,< 100 nM,< 100 nM
Cc1ccc(NC(=O)c2cc(C(F)(F)F)cnn2)cc1-c1cc(OCCO)nc(N2CCOCC2)n1 [Example 30],500 to 1000 nM,100 to 500 nM,100 to 500 nM,100 to 500 nM,100 to 500 nM,100 to 500 nM
Cc1ccc(NC(=O)c2cc(C3CC3)cnn2)cc1-c1ccnc(N2CCOCC2)n1 [Example 31],1000 to 10000 nM,500 to 1000 nM,100 to 500 nM,100 to 500 nM,100 to 500 nM,< 100 nM
Cc1ccc(NC(=O)c2cc(Cl)cnn2)cc1-c1cc(OCCO)nc(N2CCOCC2)c1 [Example 32],500 to 1000 nM,100 to 500 nM,1000 to 10000 nM,100 to 500 nM,1000 to 10000 nM,500 to 1000 nM
Cc1ccc(NC(=O)c2cc(C(F)(F)F)cnn2)cc1-c1cc(N2CCOCC2)nc(N[C@H](C)CO)n1 [Example 33],100 to 500 nM,< 100 nM,100 to 500 nM,100 to 500 nM,100 to 500 nM,100 to 500 nM
Cc1ccc(NC(=O)c2cc(C3CC3)cnn2)cc1-c1cc(N2CCOCC2)nc(N[C@H](C)CO)n1 [Example 35],< 100 nM,< 100 nM,100 to 500 nM,100 to 500 nM,100 to 500 nM,100 to 500 nM
Cc1ccc(NC(=O)c2cc(C3CC3)cnn2)cc1-c1cc(N[C@H](C)CO)nc(N2CCOCC2)n1 [Example 36],100 to 500 nM,100 to 500 nM,100 to 500 nM,100 to 500 nM,100 to 500 nM,500 to 1000 nM
Cc1ccc(NC(=O)c2cnc(Cl)nc2)cc1-c1cc(N[C@H](C)CO)nc(N2CCOCC2)c1 [Example 38],1000 to 10000 nM,500 to 1000 nM,1000 to 10000 nM,1000 to 10000 nM,1000 to 10000 nM,1000 to 10000 nM
Cc1ccc(NC(=O)c2cc(C(C)C)cnn2)cc1-c1cc(OCCO)nc(N2CCOCC2)c1 [Example 39],< 100 nM,< 100 nM,100 to 500 nM,< 100 nM,100 to 500 nM,100 to 500 nM
